# Where a name gives a salt, the structure may show the parent alone. Calls of active or inactive are those of the source.
# What was measured:
# [1] = Luminescence Cell-Based Dose Confirmation HTS to Identify Activators of 5'UTR Stem-Loop Driven Alpha-Synuclein mRNA Translation in H4 Neuroglioblastoma Cells. [Related pubchem assays: 1829 (Project Summary), 1814 (Primary HTS)]; assay type: functional
# [2] = Luminescence Cell-Based Dose Response HTS to Identify Activators of Luciferase Translation or Activity in H4 […] Cells. [Related pubchem assays: 1829 (Project Summary), 1814 (Primary HTS)]; assay type: functional
# [3] = system: H4; assay: Luminescence Cell-Based Dose Response HTS to Identify Activators of 5'UTR Stem-Loop Driven Prion Protein mRNA Translation in H4 Neuroglioblastoma Cells. [Related pubchem assays: 1829 (Project Summary), 1814 (Primary HTS)]; assay type: functional; conditions: Homo sapiens
# [4] = viability loss in HeLa cells – cytotoxicity control for MgcRacGAP inhibitor project, dose response (AID 624300); assay type: functional
# [5] = molecular target: T1, Rac GTPase-activating protein 1 (Homo sapiens, UniProt Q9H0H5); assay: blockers of MgcRacGAP-driven Rac1 GTP hydrolysis – biochemical, ADP Hunter fluorescence, primary and confirmatory, confirmation (AID 624330); assay type: functional
# T1 sequence (Q9H0H5 whole entry): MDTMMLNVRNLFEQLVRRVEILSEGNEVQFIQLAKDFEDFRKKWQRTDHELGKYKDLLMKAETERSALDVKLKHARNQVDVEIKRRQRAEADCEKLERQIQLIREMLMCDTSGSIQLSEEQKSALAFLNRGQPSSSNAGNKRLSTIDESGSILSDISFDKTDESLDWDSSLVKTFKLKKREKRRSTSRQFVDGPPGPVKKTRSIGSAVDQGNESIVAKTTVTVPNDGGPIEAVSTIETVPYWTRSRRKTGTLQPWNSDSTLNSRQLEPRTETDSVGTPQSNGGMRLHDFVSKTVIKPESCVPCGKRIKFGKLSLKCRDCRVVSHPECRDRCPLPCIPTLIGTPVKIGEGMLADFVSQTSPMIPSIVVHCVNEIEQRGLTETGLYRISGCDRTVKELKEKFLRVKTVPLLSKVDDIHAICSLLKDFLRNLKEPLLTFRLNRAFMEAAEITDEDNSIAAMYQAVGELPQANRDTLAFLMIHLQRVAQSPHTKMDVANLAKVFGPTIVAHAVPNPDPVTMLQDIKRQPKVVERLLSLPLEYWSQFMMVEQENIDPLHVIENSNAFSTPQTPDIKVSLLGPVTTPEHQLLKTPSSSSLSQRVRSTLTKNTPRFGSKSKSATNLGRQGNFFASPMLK
# [6] = molecular target: T2, Fatty acid synthase (Homo sapiens, UniProt P49327); assay: inhibition of human FAS-TE enzyme activity – biochemical, endpoint fluorescence intensity, uHTS hits, dose response (AID 624327); assay type: functional;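 further: fluorescence from hydrolysis of an O-methyl fluorescein acyl ester substrate by the enzyme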
# [7] = molecular target: T2, Fatty acid synthase; assay: inhibition of human FAS-TE enzyme activity – biochemical, kinetic fluorescence intensity, dose response (AID 624326); assay type: functional;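 further: rate of fluorescence rise from hydrolysis of a fluorogenic O-methyl fluorescein ester substrate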
# [8] = inhibition of ADAM10 peptide cleavage – biochemical, FRET peptide substrate, recombinant human ADAM10, selectivity assay for ADAM17 exosite inhibitor project, dose response (AID 743259);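 further: ADAM10 enzyme cleaving a FRET peptide substrate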
# [9] = molecular target: Disintegrin and metalloproteinase domain-containing protein 17 (Homo sapiens, UniProt P78536); assay: exosite inhibitors of ADAM17, dose response, biochemical (AID 743260)
# [10] = molecular target: T3, Ubiquitin-conjugating enzyme E2 N (Homo sapiens, UniProt P61088); assay type: functional;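 further: Dose-response confirmation in a TR-FRET assay detecting UBC13-driven polyubiquitin chain formation, inhibition measured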
# T3 sequence (P61088 whole entry): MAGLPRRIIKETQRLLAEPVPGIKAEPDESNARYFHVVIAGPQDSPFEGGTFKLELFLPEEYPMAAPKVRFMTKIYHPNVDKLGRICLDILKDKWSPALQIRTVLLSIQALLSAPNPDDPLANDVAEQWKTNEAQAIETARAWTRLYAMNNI
# [11] = reduced cellular PGC1a acetyl-lysine signal – cell-based, cherry-picked samples, dose response (AID 720514); assay type: functional;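 further: potency may reflect raised or lowered acetylation signal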
# [12] = A549 cell cytotoxicity, dose response, cytotoxicity control, plate reader, cherry-pick, antagonist series (AID 743412); assay type: functional, cell-based
# [13] = toxicity toward HepG2 liver cells – cell-based, plate reader, cherry-pick, antagonist series, cytotoxicity control, dose response (AID 743416); assay type: functional
# [14] = blockers of bursicon-stimulated LGR2 cAMP reporter – cell-based, HEK293, CRE-luciferase reporter, cherry pick, set 2, dose response (AID 743343); assay type: functional;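 further: transfected cells were stimulated with diluted bursicon conditioned medium after compound addition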
# [15] = blockade of melanocortin 4 receptor signaling – cell-based, plate reader, cherry pick, counter-screen for LGR2 antagonist project, dose response (AID 743444); assay type: functional
# [16] = viability loss in HEK293 cells – cell-based, plate reader, cherry-picked samples, cytotoxicity control, dose response (AID 743446); assay type: functional
# [17] = T. cruzi growth inhibition in host cells, dose response, cell-based, plate reader, dry powder, set 2 (AID 652275); assay type: functional
# [18] = viability loss in HepG2 hepatoma cells – cell-based, ATP luminescence, cherry-pick, activator set 2, cytotoxicity control, dose response (AID 1053143); assay type: functional
# [19] = Luminescence Cell-Based Dose Retest to Confirm Inhibitors of Cancer Stem Cells. [Related pubchem assays (depositor defined):AID2717, AID2721]; assay type: functional; conditions: Homo sapiens
# [20] = molecular target: T4, Small ubiquitin-related modifier 1 (Homo sapiens, UniProt P63165); assay: SUMO1 protein interaction blockers, potency – biochemical, fluorescence polarization, uHTS hits, dose response (AID 624382); assay type: functional; conditions: read-out: IC50_Mean
# [21] = molecular target: T4, Small ubiquitin-related modifier 1; assay: SUMO1 protein-protein binding blockers, potency – biochemical, FRET, dose response (AID 624383); assay type: functional; conditions: read-out: IC50_Mean
# [22] = molecular target: T5, DNA repair and recombination protein RAD54-like (Homo sapiens, UniProt Q92698); assay: RAD54 Holliday junction migration blockers – biochemical, fluorescence, cherry-picked samples, dose series, confirmation (AID 651657); assay type: functional
# T5 sequence (Q92698 whole entry): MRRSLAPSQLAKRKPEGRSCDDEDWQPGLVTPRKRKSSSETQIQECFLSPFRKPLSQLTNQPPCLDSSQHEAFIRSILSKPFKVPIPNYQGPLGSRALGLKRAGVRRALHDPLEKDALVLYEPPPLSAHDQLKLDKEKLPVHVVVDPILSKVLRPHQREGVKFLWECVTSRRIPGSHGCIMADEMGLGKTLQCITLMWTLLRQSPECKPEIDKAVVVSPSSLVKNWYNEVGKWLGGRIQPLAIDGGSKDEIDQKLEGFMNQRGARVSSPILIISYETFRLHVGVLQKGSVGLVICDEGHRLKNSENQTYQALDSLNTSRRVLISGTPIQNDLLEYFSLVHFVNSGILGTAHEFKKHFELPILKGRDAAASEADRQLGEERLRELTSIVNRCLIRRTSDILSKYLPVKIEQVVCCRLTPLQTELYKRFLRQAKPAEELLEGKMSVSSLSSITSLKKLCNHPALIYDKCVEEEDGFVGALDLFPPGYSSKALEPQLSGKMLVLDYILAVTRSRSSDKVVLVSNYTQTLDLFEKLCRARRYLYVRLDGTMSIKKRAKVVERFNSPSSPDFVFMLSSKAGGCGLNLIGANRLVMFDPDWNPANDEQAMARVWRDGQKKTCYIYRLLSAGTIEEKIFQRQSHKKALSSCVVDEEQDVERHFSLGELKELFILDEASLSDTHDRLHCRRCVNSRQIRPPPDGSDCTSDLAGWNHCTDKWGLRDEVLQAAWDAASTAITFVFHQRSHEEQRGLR
# [23] = molecular target: T6, DNA repair protein RAD52 homolog (Homo sapiens, UniProt P43351); assay type: functional, biochemical
# T6 sequence (P43351 whole entry): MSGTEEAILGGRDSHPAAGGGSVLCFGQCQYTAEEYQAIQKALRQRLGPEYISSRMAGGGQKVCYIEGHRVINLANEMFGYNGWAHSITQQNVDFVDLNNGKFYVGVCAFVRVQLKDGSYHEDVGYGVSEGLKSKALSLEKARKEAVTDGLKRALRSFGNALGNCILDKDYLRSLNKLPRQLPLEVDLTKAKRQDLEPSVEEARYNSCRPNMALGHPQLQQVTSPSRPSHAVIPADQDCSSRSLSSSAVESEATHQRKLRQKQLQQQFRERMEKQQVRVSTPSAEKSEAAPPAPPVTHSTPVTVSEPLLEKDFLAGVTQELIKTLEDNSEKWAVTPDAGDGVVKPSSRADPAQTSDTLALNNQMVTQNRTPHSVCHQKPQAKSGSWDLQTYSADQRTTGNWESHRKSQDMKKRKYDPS
# [24] = molecular target: T7, Histone-lysine N-methyltransferase NSD2 (Homo sapiens, UniProt O96028); assay type: biochemical
# T7 sequence (O96028 whole entry): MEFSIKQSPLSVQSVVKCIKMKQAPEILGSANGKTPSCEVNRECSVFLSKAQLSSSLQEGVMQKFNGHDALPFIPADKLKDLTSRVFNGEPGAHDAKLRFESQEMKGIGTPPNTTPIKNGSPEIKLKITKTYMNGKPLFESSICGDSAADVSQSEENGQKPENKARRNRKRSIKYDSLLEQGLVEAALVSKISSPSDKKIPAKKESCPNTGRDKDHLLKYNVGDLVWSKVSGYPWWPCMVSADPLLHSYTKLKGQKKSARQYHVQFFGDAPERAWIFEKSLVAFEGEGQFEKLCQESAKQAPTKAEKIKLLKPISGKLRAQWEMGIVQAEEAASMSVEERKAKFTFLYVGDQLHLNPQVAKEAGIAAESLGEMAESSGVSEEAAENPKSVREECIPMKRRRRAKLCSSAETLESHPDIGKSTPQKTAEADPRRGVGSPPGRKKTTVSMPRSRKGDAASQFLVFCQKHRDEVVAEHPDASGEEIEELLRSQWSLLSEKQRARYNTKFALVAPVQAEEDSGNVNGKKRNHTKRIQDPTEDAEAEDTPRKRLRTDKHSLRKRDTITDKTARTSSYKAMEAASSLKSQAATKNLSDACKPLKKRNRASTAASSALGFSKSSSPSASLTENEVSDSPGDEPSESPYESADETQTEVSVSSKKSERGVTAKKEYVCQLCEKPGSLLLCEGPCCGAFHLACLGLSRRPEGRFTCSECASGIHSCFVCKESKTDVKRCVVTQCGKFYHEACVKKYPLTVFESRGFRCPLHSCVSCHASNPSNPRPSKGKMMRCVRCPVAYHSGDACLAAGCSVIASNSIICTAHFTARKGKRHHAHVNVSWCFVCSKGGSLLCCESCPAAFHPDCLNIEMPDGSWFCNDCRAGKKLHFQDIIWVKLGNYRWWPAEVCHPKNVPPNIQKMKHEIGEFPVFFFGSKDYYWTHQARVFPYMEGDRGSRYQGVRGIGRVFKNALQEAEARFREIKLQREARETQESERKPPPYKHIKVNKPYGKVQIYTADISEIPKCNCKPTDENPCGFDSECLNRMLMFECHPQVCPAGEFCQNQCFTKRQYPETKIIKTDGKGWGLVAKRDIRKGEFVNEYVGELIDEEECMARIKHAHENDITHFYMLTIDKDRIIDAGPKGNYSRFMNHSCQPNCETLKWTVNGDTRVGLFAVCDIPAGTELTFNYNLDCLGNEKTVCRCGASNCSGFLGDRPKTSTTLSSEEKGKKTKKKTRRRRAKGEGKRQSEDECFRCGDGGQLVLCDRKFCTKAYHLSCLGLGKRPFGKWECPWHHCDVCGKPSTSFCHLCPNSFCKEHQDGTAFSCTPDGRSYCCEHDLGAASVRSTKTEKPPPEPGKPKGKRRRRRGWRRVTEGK
# T2 sequence (P49327 whole entry): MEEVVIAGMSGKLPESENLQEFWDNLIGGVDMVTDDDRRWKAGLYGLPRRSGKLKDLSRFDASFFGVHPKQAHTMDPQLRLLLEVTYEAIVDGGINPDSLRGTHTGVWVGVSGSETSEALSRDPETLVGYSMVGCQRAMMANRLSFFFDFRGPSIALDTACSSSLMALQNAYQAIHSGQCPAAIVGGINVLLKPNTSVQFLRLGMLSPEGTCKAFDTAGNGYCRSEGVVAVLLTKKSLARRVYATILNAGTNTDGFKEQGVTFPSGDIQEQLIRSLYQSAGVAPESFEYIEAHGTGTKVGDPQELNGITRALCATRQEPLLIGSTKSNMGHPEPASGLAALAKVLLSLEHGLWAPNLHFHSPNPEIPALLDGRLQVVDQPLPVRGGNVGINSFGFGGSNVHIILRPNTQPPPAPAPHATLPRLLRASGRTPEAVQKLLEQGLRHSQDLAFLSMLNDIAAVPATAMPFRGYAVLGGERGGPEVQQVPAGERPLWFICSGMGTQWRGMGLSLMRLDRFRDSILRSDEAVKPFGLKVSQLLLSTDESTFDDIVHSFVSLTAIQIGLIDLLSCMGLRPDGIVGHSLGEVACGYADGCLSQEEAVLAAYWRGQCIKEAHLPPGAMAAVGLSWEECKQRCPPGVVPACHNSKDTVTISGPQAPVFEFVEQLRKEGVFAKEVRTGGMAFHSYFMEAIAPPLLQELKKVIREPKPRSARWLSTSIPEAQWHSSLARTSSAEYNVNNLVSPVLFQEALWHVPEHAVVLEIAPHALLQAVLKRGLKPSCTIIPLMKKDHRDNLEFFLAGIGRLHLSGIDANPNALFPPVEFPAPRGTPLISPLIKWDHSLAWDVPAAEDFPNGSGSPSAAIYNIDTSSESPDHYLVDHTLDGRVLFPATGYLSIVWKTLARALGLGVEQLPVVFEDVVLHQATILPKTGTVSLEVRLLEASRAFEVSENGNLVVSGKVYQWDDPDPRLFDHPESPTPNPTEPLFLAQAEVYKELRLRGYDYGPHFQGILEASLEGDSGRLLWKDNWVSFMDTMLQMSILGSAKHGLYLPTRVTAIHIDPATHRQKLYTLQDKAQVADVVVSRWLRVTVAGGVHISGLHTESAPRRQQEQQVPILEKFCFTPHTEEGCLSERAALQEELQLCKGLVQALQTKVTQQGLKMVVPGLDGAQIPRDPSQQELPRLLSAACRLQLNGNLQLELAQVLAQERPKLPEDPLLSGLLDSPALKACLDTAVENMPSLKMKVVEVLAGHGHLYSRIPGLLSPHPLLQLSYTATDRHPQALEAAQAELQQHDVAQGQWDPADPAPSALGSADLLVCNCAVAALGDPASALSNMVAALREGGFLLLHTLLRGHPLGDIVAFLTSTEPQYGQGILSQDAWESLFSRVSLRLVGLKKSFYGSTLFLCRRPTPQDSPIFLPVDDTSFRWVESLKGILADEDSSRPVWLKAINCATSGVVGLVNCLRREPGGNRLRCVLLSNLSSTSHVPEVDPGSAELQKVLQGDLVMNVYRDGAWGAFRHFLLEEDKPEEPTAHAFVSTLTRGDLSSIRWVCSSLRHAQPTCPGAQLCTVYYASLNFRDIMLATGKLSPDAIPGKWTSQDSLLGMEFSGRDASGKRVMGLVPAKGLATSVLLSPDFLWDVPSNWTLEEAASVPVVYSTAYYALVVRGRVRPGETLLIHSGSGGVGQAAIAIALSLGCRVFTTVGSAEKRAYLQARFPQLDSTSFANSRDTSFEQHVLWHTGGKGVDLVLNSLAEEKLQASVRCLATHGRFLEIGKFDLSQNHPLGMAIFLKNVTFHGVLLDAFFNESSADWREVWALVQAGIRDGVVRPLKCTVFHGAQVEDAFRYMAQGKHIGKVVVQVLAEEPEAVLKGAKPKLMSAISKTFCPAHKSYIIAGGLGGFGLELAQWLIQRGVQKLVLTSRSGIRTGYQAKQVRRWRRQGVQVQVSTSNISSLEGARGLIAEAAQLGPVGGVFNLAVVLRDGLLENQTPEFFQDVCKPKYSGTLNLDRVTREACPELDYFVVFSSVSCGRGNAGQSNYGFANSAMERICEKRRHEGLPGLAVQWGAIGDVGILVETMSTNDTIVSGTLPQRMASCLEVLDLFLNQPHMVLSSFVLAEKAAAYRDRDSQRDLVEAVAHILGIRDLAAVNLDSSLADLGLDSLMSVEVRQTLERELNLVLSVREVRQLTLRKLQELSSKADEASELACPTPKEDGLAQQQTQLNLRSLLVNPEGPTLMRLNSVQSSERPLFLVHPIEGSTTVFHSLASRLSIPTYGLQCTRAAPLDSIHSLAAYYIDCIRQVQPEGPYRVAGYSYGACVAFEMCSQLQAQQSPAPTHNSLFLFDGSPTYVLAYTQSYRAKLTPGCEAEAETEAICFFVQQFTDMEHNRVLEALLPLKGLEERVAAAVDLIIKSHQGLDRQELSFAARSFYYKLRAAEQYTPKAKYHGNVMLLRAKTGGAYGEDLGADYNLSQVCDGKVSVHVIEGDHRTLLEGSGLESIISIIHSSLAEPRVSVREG
# T4 sequence (P63165 whole entry): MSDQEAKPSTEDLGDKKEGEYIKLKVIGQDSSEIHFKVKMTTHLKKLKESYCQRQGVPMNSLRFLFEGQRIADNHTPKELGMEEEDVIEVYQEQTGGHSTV
# Chain of Disintegrin and metalloproteinase domain-containing protein 17 (P78536 whole entry, the tested form may be a part): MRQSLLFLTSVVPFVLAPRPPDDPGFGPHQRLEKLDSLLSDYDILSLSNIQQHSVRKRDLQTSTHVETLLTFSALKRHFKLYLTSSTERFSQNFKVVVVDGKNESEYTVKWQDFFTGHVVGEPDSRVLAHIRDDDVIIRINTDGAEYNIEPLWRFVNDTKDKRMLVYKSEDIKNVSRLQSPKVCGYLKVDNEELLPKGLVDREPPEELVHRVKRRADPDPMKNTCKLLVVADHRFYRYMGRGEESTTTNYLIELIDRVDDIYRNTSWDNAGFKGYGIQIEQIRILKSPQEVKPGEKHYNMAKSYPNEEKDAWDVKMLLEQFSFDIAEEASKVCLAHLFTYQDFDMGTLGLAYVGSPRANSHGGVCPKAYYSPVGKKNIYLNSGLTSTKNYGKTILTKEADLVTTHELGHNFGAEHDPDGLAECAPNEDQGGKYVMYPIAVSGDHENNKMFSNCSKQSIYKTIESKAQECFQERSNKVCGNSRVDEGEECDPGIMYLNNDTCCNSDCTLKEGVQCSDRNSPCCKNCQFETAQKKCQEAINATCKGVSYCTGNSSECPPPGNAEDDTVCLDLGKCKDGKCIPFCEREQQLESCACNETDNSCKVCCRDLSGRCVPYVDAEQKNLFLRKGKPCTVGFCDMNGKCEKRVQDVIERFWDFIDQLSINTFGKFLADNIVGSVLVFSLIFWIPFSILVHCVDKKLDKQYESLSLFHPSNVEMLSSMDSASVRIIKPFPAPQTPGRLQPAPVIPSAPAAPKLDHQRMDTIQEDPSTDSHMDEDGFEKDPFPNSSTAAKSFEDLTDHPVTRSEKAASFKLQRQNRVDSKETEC
structure (smiles),measurement,setting,value
CCn1c(SC(C)C)nnc1-c1cc(-c2ccccc2)sc1N,EC50,[1],> 120 µM (not active)
same,EC50,[2],> 120 µM (not active)
same,EC50,[3],> 120 µM (not active)
same,CC50,[4],100 µM (active)
same,IC50,[5],31.1 µM (active)
COCCCNC(=O)C[C@H]1C[C@H](C(=O)N2CCOCC2)[C@@]2(CCC3CCCC3)c3[nH]c4cc(-c5ccco5)ccc4c3CCN2C1=O,IC50,[6],6.51 µM (active)
same,IC50,[7],9.08 µM (active)
COc1cccc(-c2cnc3c(NC=O)cc(-c4ccc(S(C)(=O)=O)cc4)cn23)c1,IC50,[6],11.2 µM (active)
same,IC50,[7],9.95 µM (active)
COc1cc(C(c2c(C)n[nH]c2O)c2c(C)n[nH]c2O)ccc1OCc1ccc([N+](=O)[O-])cc1,IC50,[8],> 23.2 µM (inactive)
O=C(CSc1nc2ccccc2o1)NN=C/C=C/c1ccccc1,IC50,[9],> 69.5 µM (inactive)
same,IC50,[8],> 69.5 µM (inactive)
OC(c1cc(C(F)(F)F)nc2c(C(F)(F)F)cccc12)C1CCCCN1 (stereo not given) [MEFLOQUINE HYDROCHLORIDE],IC50,[10],> 20 µM (inactive)
same,AC50,[11],7.13 µM (active)
same,AC50,[12],8.37 µM (active)
same,AC50,[13],11.6 µM (active)
same,AC50,[14],9.96 µM (active)
same,AC50,[16],5.19 µM (active)
COc1ccc(N2CCN(CC(O)COC(c3ccc(F)cc3)c3ccc(F)cc3)CC2)cc1 (stereo not given),CC50,[4],100 µM (active)
same,IC50,[5],92.8 µM (active)
O=C(C1CCC1)N1CCCCN2[C@@H](CO)[C@H](c3ccc(-c4cccc(F)c4)cc3)[C@@H]2C1,AC50,[17],0.227 µM (active)
CN(C)c1ccc(C=Cc2ccnc3ccccc23)cc1N,AC50,[18],26 µM (active)
Cc1ccccc1-n1c(SCC(=O)N/N=C/C=C/c2ccccc2[N+](=O)[O-])nc2ccccc2c1=O,AC50,[19],> 195 µM (inactive)
same,IC50,[9],> 69.5 µM (inactive)
same,IC50,[8],4.51 µM (active)
CN(Cc1ccccc1)C(=O)COC(=O)c1cc([N+](=O)[O-])ccc1N1CCOCC1,IC50,[6],0.539 µM (active)
same,IC50,[7],0.617 µM (active)
CN(C)CCNC(=O)c1cccc(-c2cnc3c(NC=O)cc(-c4cccs4)cn23)c1,IC50,[20],> 66.6 µM (inactive)
same,IC50,[21],1.82 µM (active)
same,AC50,[22],15.6 µM (active)
same,AC50,[23],8.36 µM (active)
Cc1cc(/C=C2\C(=O)NC(=O)N(Cc3ccccc3Cl)C2=O)c(C)n1-c1ccc(C(=O)O)cc1,AC50,[24],> 20 µM (inactive)
Cc1cc(N2CCN(C)CC2)nc2ccc(NC(=S)NCCCN3CCc4ccccc4C3)cc12,AC50,[22],28.1 µM (active)
same,AC50,[23],3.85 µM (active)
